# Laboratory results as given in ChEMBL document CHEMBL1130478, “Mono and bis double ester prodrugs of novel aminomethyl-THF 1-methylcarbapenems” (Bioorg Med Chem Lett, 1997).
# Key:
# Assay type in all cases: functional
# [1] = target: T1, Dipeptidase 1 (Sus scrofa) (UniProt P22412); experiment: Relative hydrolysis by hog Dehydropeptidase
# T1 sequence (whole entry): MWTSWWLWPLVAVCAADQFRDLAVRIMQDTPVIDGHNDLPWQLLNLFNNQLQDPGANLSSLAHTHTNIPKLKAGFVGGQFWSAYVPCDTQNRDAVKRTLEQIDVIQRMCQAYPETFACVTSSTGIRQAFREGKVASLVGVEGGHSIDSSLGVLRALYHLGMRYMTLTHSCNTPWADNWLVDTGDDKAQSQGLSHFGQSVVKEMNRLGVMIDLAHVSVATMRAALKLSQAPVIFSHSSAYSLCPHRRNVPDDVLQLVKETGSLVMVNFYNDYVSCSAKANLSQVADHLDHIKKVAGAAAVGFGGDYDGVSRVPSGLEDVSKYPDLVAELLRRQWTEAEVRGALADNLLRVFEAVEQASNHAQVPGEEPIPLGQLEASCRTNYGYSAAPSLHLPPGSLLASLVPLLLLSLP
# Pseudomonas aeruginosa [2] = experiment: In vitro antibacterial activity against P. aeruginosa(GC 1544 oprd) without pre-incubation in mouse serum
# Morganella morganii [3] = experiment: In vitro antibacterial activity against M. morganii(GC 2213) following pre-incubation in mouse serum
# Escherichia coli [4] = experiment: In vitro antibacterial activity expressed as MIC against E. coli(GC 2205) following pre-incubation in mouse serum
# [5] = tested on: Stenotrophomonas maltophilia; experiment: In vitro antibacterial activity against X. maltophilia(GC 562) without pre-incubation in mouse serum
# Mus musculus [6] = experiment: Antibacterial activity against Escherichia coli (311) infection in mice after single oral dose, activity expressed as ED50
# [7] = tested on: Acinetobacter calcoaceticus; experiment: In vitro antibacterial activity against Acinetobacter calcoaceticus (GC 756) following preincubation in mouse serum
# Staphylococcus aureus [8] = experiment: In vitro antibacterial activity against S. aureus(ATCC 29213) without pre-incubation in mouse serum
# [9] = tested on: Acinetobacter calcoaceticus; experiment: In vitro antibacterial activity against Acinetobacter calcoaceticus (GC 756) without preincubation in mouse serum
# Escherichia coli [10] = experiment: In vitro antibacterial activity expressed as MIC against E. coli(GC 1792) following pre-incubation in mouse serum
# Staphylococcus aureus [11] = experiment: In vitro antibacterial activity against S. aureus(GC 2220 MRSA) following pre-incubation in mouse serum
# Pseudomonas aeruginosa [12] = experiment: In vitro antibacterial activity against Pseudomonas aeruginosa (ATCC 27853) without pre-incubation in mouse serum
# Enterobacter cloacae [13] = experiment: In vitro antibacterial activity against E. cloacae(GC 2209) without pre-incubation in mouse serum
# Enterococcus faecalis [14] = experiment: In vitro antibacterial activity against E. faecalis(GC 842) following pre-incubation in mouse serum
# Escherichia coli [15] = experiment: In vitro antibacterial activity expressed as MIC against Escherichia coli (ATCC 25922) without pre-incubation in mouse serum
# Escherichia coli [16] = experiment: In vitro antibacterial activity expressed as MIC against Escherichia coli (ATCC 25922) following pre-incubation in mouse serum
# Morganella morganii [17] = experiment: In vitro antibacterial activity against M. morganii(GC 2213) without pre-incubation in mouse serum
# Pseudomonas aeruginosa [18] = experiment: In vitro antibacterial activity against P. aeruginosa(GC 1544 oprd) following pre-incubation in mouse serum
# Enterococcus faecium [19] = experiment: In vitro for antibacterial activity against E. faecium(GC 1182) without pre-incubation in mouse serum
# Staphylococcus aureus [20] = experiment: In vitro antibacterial activity against S aureus(ATCC 29213) following preincubation in mouse serum
# Citrobacter freundii [21] = experiment: In vitro antibacterial activity against C. freundii(GC 2211) without preincubation in mouse serum
# Enterobacter cloacae [22] = experiment: In vitro antibacterial activity against E. cloacae(GC 2209) following preincubation in mouse serum
# Staphylococcus aureus [23] = experiment: In vitro antibacterial activity against S. aureus(GC 2220 MRSA) without pre-incubation in mouse serum
# Enterococcus faecium [24] = experiment: In vitro for antibacterial activity against E. faecium(GC 1182) following pre-incubation in mouse serum
# Citrobacter freundii [25] = experiment: In vitro antibacterial activity against C. freundii(GC 2211) following pre-incubation in mouse serum
# Enterococcus faecalis [26] = experiment: In vitro antibacterial activity against E. faecalis(GC 842) without pre-incubation in mouse serum
# Mus musculus [27] = experiment: Antibacterial activity against Escherichia coli (311) infection in mice after single subcutaneous dose, activity expressed as ED50; conditions: sc
# [28] = tested on: Stenotrophomonas maltophilia; experiment: In vitro antibacterial activity against X. maltophilia(GC 562) following pre-incubation in mouse serum
# Escherichia coli [29] = experiment: In vitro antibacterial activity expressed as MIC against E. coli(GC 1792) without pre-incubation in mouse serum
# Pseudomonas aeruginosa [30] = experiment: In vitro antibacterial activity against Pseudomonas aeruginosa (ATCC 27853) following pre-incubation in mouse serum
# Escherichia coli [31] = experiment: In vitro antibacterial activity expressed as MIC against E. coli(GC 2205) without pre-incubation in mouse serum
structure (smiles),measurement,setting,value
CC(=O)OC(C)OC(=O)NC[C@H]1OCC[C@H]1SC1=C(C(=O)O)N2C(=O)[C@H]([C@@H](C)O)C2[C@H]1C (stereo partly specified),Relative hydrolysis,[1],6
CCOC(=O)OCOC(=O)C1=C(S[C@@H]2CCO[C@@H]2CNC(=O)OC(C)OC(C)=O)[C@H](C)C2[C@@H]([C@@H](C)O)C(=O)N12 (stereo partly specified),MIC,Pseudomonas aeruginosa [2],> 128 µg/mL
same,Relative hydrolysis,[1],4.9
same,MIC,Morganella morganii [3],1 µg/mL
same,MIC,Escherichia coli [4],0.06 µg/mL
same,MIC,[5],> 128 µg/mL
same,ED50,Mus musculus [6],0.83 mg/kg
same,MIC,[7],4 µg/mL
same,MIC,Staphylococcus aureus [8],8 µg/mL
same,MIC,[9],> 128 µg/mL
same,MIC,Escherichia coli [10],< 0.06 µg/mL
same,MIC,Staphylococcus aureus [11],2 µg/mL
same,MIC,Pseudomonas aeruginosa [12],> 128 µg/mL
same,MIC,Enterobacter cloacae [13],64 µg/mL
same,MIC,Enterococcus faecalis [14],2 µg/mL
same,MIC,Escherichia coli [15],4 µg/mL
same,MIC,Escherichia coli [16],< 0.06 µg/mL
same,MIC,Morganella morganii [17],32 µg/mL
same,MIC,Pseudomonas aeruginosa [18],32 µg/mL
same,MIC,Enterococcus faecium [19],> 128 µg/mL
same,MIC,Staphylococcus aureus [20],0.03 µg/mL
same,MIC,Citrobacter freundii [21],128 µg/mL
same,MIC,Enterobacter cloacae [22],0.12 µg/mL
same,MIC,Staphylococcus aureus [23],> 128 µg/mL
same,MIC,Enterococcus faecium [24],128 µg/mL
same,MIC,Citrobacter freundii [25],0.25 µg/mL
same,MIC,Enterococcus faecalis [26],64 µg/mL
same,ED50,Mus musculus [27],0.59 mg/kg
same,MIC,[28],> 128 µg/mL
same,MIC,Escherichia coli [29],8 µg/mL
same,MIC,Pseudomonas aeruginosa [30],16 µg/mL
same,MIC,Escherichia coli [31],1 µg/mL
C[C@H]1C(S[C@@H]2CCO[C@@H]2CNC(=O)OCOC(=O)c2ccccc2)=C(C(=O)[O-])N2C(=O)[C@H]([C@@H](C)O)C12.[Na+] (stereo partly specified),ED50,Mus musculus [6],2.9 mg/kg
same,ED50,Mus musculus [27],0.32 mg/kg
C[C@H]1C(SC2COC(CN)C2)=C(C(=O)O)N2C(=O)[C@H]([C@@H](C)O)C12 (stereo partly specified),ED50,Mus musculus [6],3.5 mg/kg
same,ED50,Mus musculus [27],0.28 mg/kg
CCOC(=O)OC(C)OC(=O)C1=C(S[C@@H]2CCO[C@@H]2CN)[C@H](C)C2[C@@H]([C@@H](C)O)C(=O)N12.Cl (stereo partly specified),ED50,Mus musculus [6],25 mg/kg
same,ED50,Mus musculus [27],1.8 mg/kg
CC(=O)OC(C)OC(=O)NC[C@H]1OCC[C@H]1SC1=C(C(=O)[O-])N2C(=O)[C@H]([C@@H](C)O)C2[C@H]1C.[Na+] (stereo partly specified),MIC,Pseudomonas aeruginosa [2],> 128 µg/mL
same,MIC,Morganella morganii [3],1 µg/mL
same,MIC,Escherichia coli [4],< 0.06 µg/mL
same,MIC,[5],> 128 µg/mL
same,ED50,Mus musculus [6],4.9 mg/kg
same,MIC,[7],4 µg/mL
same,MIC,Staphylococcus aureus [8],0.5 µg/mL
same,MIC,[9],32 µg/mL
same,MIC,Escherichia coli [10],< 0.06 µg/mL
same,MIC,Staphylococcus aureus [11],8 µg/mL
same,MIC,Pseudomonas aeruginosa [12],64 µg/mL
same,MIC,Enterobacter cloacae [13],2 µg/mL
same,MIC,Enterococcus faecalis [14],1 µg/mL
same,MIC,Escherichia coli [15],0.12 µg/mL
same,MIC,Escherichia coli [16],< 0.06 µg/mL
same,MIC,Morganella morganii [17],2 µg/mL
same,MIC,Pseudomonas aeruginosa [18],32 µg/mL
same,MIC,Enterococcus faecium [19],> 128 µg/mL
same,MIC,Staphylococcus aureus [20],< 0.06 µg/mL
same,MIC,Citrobacter freundii [21],4 µg/mL
same,MIC,Enterobacter cloacae [22],< 0.06 µg/mL
same,MIC,Staphylococcus aureus [23],32 µg/mL
same,MIC,Enterococcus faecium [24],64 µg/mL
same,MIC,Citrobacter freundii [25],0.25 µg/mL
same,MIC,Enterococcus faecalis [26],4 µg/mL
same,ED50,Mus musculus [27],0.65 mg/kg
same,MIC,[28],> 128 µg/mL
same,MIC,Escherichia coli [29],0.25 µg/mL
same,MIC,Pseudomonas aeruginosa [30],16 µg/mL
same,MIC,Escherichia coli [31],0.12 µg/mL
CC(C)OC(=O)OC(C)OC(=O)C1=C(S[C@@H]2CCO[C@@H]2CNC(=O)OCOC(=O)C(C)C)[C@H](C)C2[C@@H]([C@@H](C)O)C(=O)N12 (stereo partly specified),ED50,Mus musculus [6],1.4 mg/kg
same,ED50,Mus musculus [27],2.1 mg/kg
CCOC(=O)OCOC(=O)NCC1OCCC1SC1=C(C(=O)OCOC(=O)C(C)C)N2C(=O)[C@H]([C@@H](C)O)C2[C@H]1C (stereo partly specified),ED50,Mus musculus [6],0.87 mg/kg
same,ED50,Mus musculus [27],0.37 mg/kg
CC(C)C(=O)OCOC(=O)NC[C@H]1OCC[C@H]1SC1=C(C(=O)OCOC(=O)C(C)(C)C)N2C(=O)[C@H]([C@@H](C)O)C2[C@H]1C (stereo partly specified),ED50,Mus musculus [6],1.6 mg/kg
same,ED50,Mus musculus [27],1.9 mg/kg
CCCC(=O)OCOC(=O)NC[C@H]1OCC[C@H]1SC1=C(C(=O)OCOC(=O)OCC)N2C(=O)[C@H]([C@@H](C)O)C2[C@H]1C (stereo partly specified),ED50,Mus musculus [6],1.3 mg/kg
same,ED50,Mus musculus [27],0.49 mg/kg
